Measured values published in article PMC6345968, “Structural basis for species-selective targeting of Hsp90 in a pathogenic fungus” (Nature Communications, 2019).
Read-outs that look alike come from different tables or passages of the source. One block for each compound: values may come before it.

How the values were obtained:
[1] = biological target: T1, Hsp90 in C. albicans (SC5314) lysate (Candida albicans, UniProt P46598); experiment: biochemical; type: binding; settings: for Ratio re. GdA: EC50 relative to GdA; for FP signal: raw; for EC50: not normalized, oxime panel experiment 220817
T1 construct: endogenous in cells; host or cells: C. albicans SC5314 whole-cell lysate
T1 sequence (P46598 whole entry): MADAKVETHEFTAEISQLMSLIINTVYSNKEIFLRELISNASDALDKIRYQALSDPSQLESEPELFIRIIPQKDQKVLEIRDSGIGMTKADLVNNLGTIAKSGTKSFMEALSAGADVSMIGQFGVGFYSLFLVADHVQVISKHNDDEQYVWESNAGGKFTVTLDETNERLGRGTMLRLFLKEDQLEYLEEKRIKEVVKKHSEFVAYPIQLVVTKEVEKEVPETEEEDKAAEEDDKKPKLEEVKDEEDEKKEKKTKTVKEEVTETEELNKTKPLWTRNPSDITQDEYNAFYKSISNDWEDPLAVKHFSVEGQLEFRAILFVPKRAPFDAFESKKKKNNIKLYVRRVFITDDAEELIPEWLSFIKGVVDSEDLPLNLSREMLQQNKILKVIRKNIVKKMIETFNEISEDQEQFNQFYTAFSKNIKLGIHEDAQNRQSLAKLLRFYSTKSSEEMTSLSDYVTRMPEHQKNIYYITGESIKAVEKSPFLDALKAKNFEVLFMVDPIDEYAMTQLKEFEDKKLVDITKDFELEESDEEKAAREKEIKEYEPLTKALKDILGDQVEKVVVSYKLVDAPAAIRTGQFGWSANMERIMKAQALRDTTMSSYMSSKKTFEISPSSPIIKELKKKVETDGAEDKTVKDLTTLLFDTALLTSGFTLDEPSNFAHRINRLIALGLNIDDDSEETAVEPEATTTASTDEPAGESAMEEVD

Hsp90 in HEPG2 lysate = settings: for FP signal (raw) / FP signal / EC50: HepG2 lysate; for FP signal: raw; for EC50: oxime panel experiment 220817
[2] = SC5314 lysate, 0.457 nM compound
[3] = SC5314 lysate, 1.372 nM compound
[4] = SC5314 lysate, 4.115 nM compound
[5] = SC5314 lysate, 12.346 nM compound
[6] = SC5314 lysate, 37.037 nM compound
[7] = SC5314 lysate, 111.111 nM compound
[8] = SC5314 lysate, 333.333 nM compound
[9] = SC5314 lysate, 1000 nM compound
[10] = SC5314 lysate, 3000 nM compound
[11] = ratio of GdA-normalized EC50s, human over fungal lysate
[12] = ratio of GdA-relative EC50 ratios, HepG2 over SC5314
[13] = EC50 / EC50 of GdA in HepG2 lysate
[14] = EC50 relative to GdA, HEPG2 lysate
[15] = HEPG2 lysate, log concentration 0.137354 (1.372 nM)
[16] = HEPG2 lysate, log concentration 0.61437 (4.115 nM)
[17] = HEPG2 lysate, log concentration 1.09153 (12.346 nM)
[18] = HEPG2 lysate, log concentration 1.56864 (37.037 nM)
[19] = HEPG2 lysate, log concentration 2.04576 (111.111 nM)
[20] = HEPG2 lysate, log concentration 2.52288 (333.333 nM)
[21] = HEPG2 lysate, log concentration 3 (1000 nM)
[22] = HEPG2 lysate, log concentration 3.47712 (3000 nM)
[23] = HEPG2 lysate, log concentration -0.340084 (0.457 nM)

Ratio re. GdA ([1]; SC5314 lysate): 21.164 | FP signal (raw) ([1]; SC5314 lysate, 0.457 nM): 194 | FP signal relative to 0 nM [1, 2]: 0.9652 | FP signal [1, 2]: 194 | FP signal (raw) ([1]; SC5314 lysate, 1.372 nM): 195 | FP signal relative to 0 nM [1, 3]: 0.9701 | FP signal [1, 3]: 195 | FP signal (raw) ([1]; SC5314 lysate, 4.115 nM): 190 | FP signal relative to 0 nM [1, 4]: 0.9453 | FP signal [1, 4]: 190 | FP signal (raw) ([1]; SC5314 lysate, 12.346 nM): 193 | FP signal relative to 0 nM [1, 5]: 0.9602 | FP signal [1, 5]: 193 | FP signal (raw) ([1]; SC5314 lysate, 37.037 nM): 178 | FP signal relative to 0 nM [1, 6]: 0.8856 | FP signal [1, 6]: 178 | FP signal (raw) ([1]; SC5314 lysate, 111.111 nM): 162 | FP signal relative to 0 nM [1, 7]: 0.806 | FP signal [1, 7]: 162 | FP signal (raw) ([1]; SC5314 lysate, 333.333 nM): 111 | FP signal relative to 0 nM [1, 8]: 0.5522 | FP signal [1, 8]: 111 | FP signal (raw) ([1]; SC5314 lysate, 1000 nM): 56 | FP signal relative to 0 nM [1, 9]: 0.2786 | FP signal [1, 9]: 56 | FP signal (raw) ([1]; SC5314 lysate, 3000 nM): 32 | FP signal relative to 0 nM [1, 10]: 0.1592 | FP signal [1, 10]: 32 | EC50 ([1]; SC5314 lysate, read-out: EC50): 360 nM | HepG2/SC5314 [1, 11]: 1.415 | HepG2/SC5314 [1, 12]: 1.415 | EC50 (Hsp90 in HEPG2 lysate): 664 nM
SMILES: CC1CC2OC2C=CC=CC(=NOCc2cccc(F)c2)Cc2c(Cl)c(O)cc(O)c2C(=O)O1 (mixture of isomers) [compound 227]
Ratio rel. GdA (HepG2) (Hsp90 in HEPG2 lysate; [13]): 29.9414 | Ratio rel. GdA (HepG2) (Hsp90 in HEPG2 lysate; [14]): 29.9414 | FP signal, Fxn Control (Hsp90 in HEPG2 lysate; [15]): 0.976 | FP signal, Fxn Control (Hsp90 in HEPG2 lysate; [16]): 0.9615 | FP signal, Fxn Control (Hsp90 in HEPG2 lysate; [17]): 0.9712 | FP signal, Fxn Control (Hsp90 in HEPG2 lysate; [18]): 0.9519 | FP signal, Fxn Control (Hsp90 in HEPG2 lysate; [19]): 0.9038 | FP signal, Fxn Control (Hsp90 in HEPG2 lysate; [20]): 0.7933 | FP signal, Fxn Control (Hsp90 in HEPG2 lysate; [21]): 0.399 | FP signal, Fxn Control (Hsp90 in HEPG2 lysate; [22]): 0.1923 | FP signal, Fxn Control (Hsp90 in HEPG2 lysate; [23]): 0.976 | FP signal (raw) (Hsp90 in HEPG2 lysate; 0.457 nM): 203 | FP signal (Hsp90 in HEPG2 lysate; 0.457 nM compound): 203 | FP signal (raw) (Hsp90 in HEPG2 lysate; 1.372 nM): 203 | FP signal (Hsp90 in HEPG2 lysate; 1.372 nM compound): 203 | FP signal (raw) (Hsp90 in HEPG2 lysate; 4.115 nM): 200 | FP signal (Hsp90 in HEPG2 lysate; 4.115 nM compound): 200 | FP signal (raw) (Hsp90 in HEPG2 lysate; 12.346 nM): 202 | FP signal (Hsp90 in HEPG2 lysate; 12.346 nM compound): 202 | FP signal (raw) (Hsp90 in HEPG2 lysate; 37.037 nM): 198 | FP signal (Hsp90 in HEPG2 lysate; 37.037 nM compound): 198 | FP signal (raw) (Hsp90 in HEPG2 lysate; 111.111 nM): 188 | FP signal (Hsp90 in HEPG2 lysate; 111.111 nM compound): 188 | FP signal (raw) (Hsp90 in HEPG2 lysate; 333.333 nM): 165 | FP signal (Hsp90 in HEPG2 lysate; 333.333 nM compound): 165 | FP signal (raw) (Hsp90 in HEPG2 lysate; 1000 nM): 83 | FP signal (Hsp90 in HEPG2 lysate; 1000 nM compound): 83 | FP signal (raw) (Hsp90 in HEPG2 lysate; 3000 nM): 40 | FP signal (Hsp90 in HEPG2 lysate; 3000 nM compound): 40

SMILES: CC1CC2OC2C=CC=CC(=NOCCN2CCCC2=O)Cc2c(Cl)c(O)cc(O)c2C(=O)O1 (centres unmarked) [KF58333, reference compound]
EC50 ([1]; EC50, SC5314 lysate): 6.86 nM | Ratio re. GdA ([1]; SC5314 lysate): 0.4034 | FP signal (raw) ([1]; SC5314 lysate, 0.457 nM): 203 | FP signal relative to 0 nM [1, 2]: 0.9807 | FP signal [1, 2]: 203 | FP signal (raw) ([1]; SC5314 lysate, 1.372 nM): 193 | FP signal relative to 0 nM [1, 3]: 0.9324 | FP signal [1, 3]: 193 | FP signal (raw) ([1]; SC5314 lysate, 4.115 nM): 162 | FP signal relative to 0 nM [1, 4]: 0.7826 | FP signal [1, 4]: 162 | FP signal (raw) ([1]; SC5314 lysate, 12.346 nM): 71 | FP signal relative to 0 nM [1, 5]: 0.343 | FP signal [1, 5]: 71 | FP signal (raw) ([1]; SC5314 lysate, 37.037 nM): 44 | FP signal relative to 0 nM [1, 6]: 0.2126 | FP signal [1, 6]: 44 | FP signal (raw) ([1]; SC5314 lysate, 111.111 nM): 38 | FP signal relative to 0 nM [1, 7]: 0.1836 | FP signal [1, 7]: 38 | FP signal (raw) ([1]; SC5314 lysate, 333.333 nM): 35 | FP signal relative to 0 nM [1, 8]: 0.1691 | FP signal [1, 8]: 35 | FP signal (raw) ([1]; SC5314 lysate, 1000 nM): 37 | FP signal relative to 0 nM [1, 9]: 0.1787 | FP signal [1, 9]: 37 | FP signal (raw) ([1]; SC5314 lysate, 3000 nM): 36 | FP signal relative to 0 nM [1, 10]: 0.1739 | FP signal [1, 10]: 36 | HepG2/SC5314 [1, 11]: 1.165 | HepG2/SC5314 [1, 12]: 1.165 | Ratio rel. GdA (HepG2) (Hsp90 in HEPG2 lysate; [13]): 0.4698 | Ratio rel. GdA (HepG2) (Hsp90 in HEPG2 lysate; [14]): 0.4698 | FP signal, Fxn Control (Hsp90 in HEPG2 lysate; [15]): 0.9604 | FP signal, Fxn Control (Hsp90 in HEPG2 lysate; [16]): 0.9307 | FP signal, Fxn Control (Hsp90 in HEPG2 lysate; [17]): 0.5149 | FP signal, Fxn Control (Hsp90 in HEPG2 lysate; [18]): 0.302 | FP signal, Fxn Control (Hsp90 in HEPG2 lysate; [19]): 0.2277 | FP signal, Fxn Control (Hsp90 in HEPG2 lysate; [20]): 0.2129 | FP signal, Fxn Control (Hsp90 in HEPG2 lysate; [21]): 0.2277 | FP signal, Fxn Control (Hsp90 in HEPG2 lysate; [22]): 0.2475 | FP signal, Fxn Control (Hsp90 in HEPG2 lysate; [23]): 0.9703 | FP signal (raw) (Hsp90 in HEPG2 lysate; 0.457 nM): 196 | FP signal (Hsp90 in HEPG2 lysate; 0.457 nM compound): 196 | FP signal (raw) (Hsp90 in HEPG2 lysate; 1.372 nM): 194 | FP signal (Hsp90 in HEPG2 lysate; 1.372 nM compound): 194 | FP signal (raw) (Hsp90 in HEPG2 lysate; 4.115 nM): 188 | FP signal (Hsp90 in HEPG2 lysate; 4.115 nM compound): 188 | FP signal (raw) (Hsp90 in HEPG2 lysate; 12.346 nM): 104 | FP signal (Hsp90 in HEPG2 lysate; 12.346 nM compound): 104 | FP signal (raw) (Hsp90 in HEPG2 lysate; 37.037 nM): 61 | FP signal (Hsp90 in HEPG2 lysate; 37.037 nM compound): 61 | FP signal (raw) (Hsp90 in HEPG2 lysate; 111.111 nM): 46 | FP signal (Hsp90 in HEPG2 lysate; 111.111 nM compound): 46 | FP signal (raw) (Hsp90 in HEPG2 lysate; 333.333 nM): 43 | FP signal (Hsp90 in HEPG2 lysate; 333.333 nM compound): 43 | FP signal (raw) (Hsp90 in HEPG2 lysate; 1000 nM): 46 | FP signal (Hsp90 in HEPG2 lysate; 1000 nM compound): 46 | FP signal (raw) (Hsp90 in HEPG2 lysate; 3000 nM): 50 | FP signal (Hsp90 in HEPG2 lysate; 3000 nM compound): 50 | EC50 (Hsp90 in HEPG2 lysate): 10.4 nM
